According to publication PMC7156458, “Synthetic biology based construction of biological activity-related library of fungal decalin-containing diterpenoid pyrones” (Nature Communications, 2020):

Biological target: Aβ42 (Homo sapiens, UniProt P05067)
Assay: Th-T (thioflavin-T) assay of Aβ42 aggregation
Format: biochemical
Details: for Th-T assay plate reading, mean of three wells (Supplementary Fig. 47): source data, Ab alone and No Ab as controls

Chain of Aβ42 (P05067 672-713): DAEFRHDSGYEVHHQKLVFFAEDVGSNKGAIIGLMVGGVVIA

## C=C1CCC2C3(C)CC(C=C(C)C)OC3CCC2(C)C1Cc1c(OC)oc(C)c(C)c1=O (centres unmarked) [Compound 23]
Aβ42 aggregation time course, reading M117
  Th-T fluorescence, mean of three wells: 3.821
Aβ42 aggregation time course, reading M118
  Th-T fluorescence, mean of three wells: 3.829
Aβ42 aggregation time course, reading M119
  Th-T fluorescence, mean of three wells: 3.818
Aβ42 aggregation time course, reading M120
  Th-T fluorescence, mean of three wells: 3.827
Aβ42 aggregation time course, reading M121
  Th-T fluorescence, mean of three wells: 3.807
Aβ42 aggregation time course, reading M122
  Th-T fluorescence, mean of three wells: 3.851
Aβ42 aggregation time course, reading M123
  Th-T fluorescence, mean of three wells: 3.84
Aβ42 aggregation time course, reading M124
  Th-T fluorescence, mean of three wells: 3.827
Aβ42 aggregation time course, reading M125
  Th-T fluorescence, mean of three wells: 3.803
Aβ42 aggregation time course, reading M126
  Th-T fluorescence, mean of three wells: 3.803
Aβ42 aggregation time course, reading M127
  Th-T fluorescence, mean of three wells: 3.811
Aβ42 aggregation time course, reading M128
  Th-T fluorescence, mean of three wells: 3.832
Aβ42 aggregation time course, reading M129
  Th-T fluorescence, mean of three wells: 3.806
Aβ42 aggregation time course, reading M130
  Th-T fluorescence, mean of three wells: 3.7777
Aβ42 aggregation time course, reading M131
  Th-T fluorescence, mean of three wells: 3.7932
Aβ42 aggregation time course, reading M132
  Th-T fluorescence, mean of three wells: 3.801
Aβ42 aggregation time course, reading M133
  Th-T fluorescence, mean of three wells: 3.762
Aβ42 aggregation time course, reading M134
  Th-T fluorescence, mean of three wells: 3.777
Aβ42 aggregation time course, reading M135
  Th-T fluorescence, mean of three wells: 3.785
Aβ42 aggregation time course, reading M136
  Th-T fluorescence, mean of three wells: 3.777
Supplementary Fig. 47, reading M137
  Th-T fluorescence, mean of three wells: 3.7533
Supplementary Fig. 47, reading M138
  Th-T fluorescence, mean of three wells: 3.768
Supplementary Fig. 47, reading M139
  Th-T fluorescence, mean of three wells: 3.732
Supplementary Fig. 47, reading M140
  Th-T fluorescence, mean of three wells: 3.756
Supplementary Fig. 47, reading M141
  Th-T fluorescence, mean of three wells: 3.727
Supplementary Fig. 47, reading M142
  Th-T fluorescence, mean of three wells: 3.722
Supplementary Fig. 47, reading M143
  Th-T fluorescence, mean of three wells: 3.7233
Supplementary Fig. 47, reading M144
  Th-T fluorescence, mean of three wells: 3.718
Supplementary Fig. 47, reading M145
  Th-T fluorescence, mean of three wells: 3.718
Supplementary Fig. 47 source data, measurement M37 of time course
  Th-T fluorescence, mean of three wells: 3.91
Supplementary Fig. 47 source data, measurement M38 of time course
  Th-T fluorescence, mean of three wells: 3.88
Supplementary Fig. 47 source data, measurement M39 of time course
  Th-T fluorescence, mean of three wells: 3.926
Supplementary Fig. 47 source data, measurement M40 of time course
  Th-T fluorescence, mean of three wells: 3.945
Supplementary Fig. 47 source data, measurement M41 of time course
  Th-T fluorescence, mean of three wells: 3.951
Supplementary Fig. 47 source data, measurement M42 of time course
  Th-T fluorescence, mean of three wells: 3.943
Supplementary Fig. 47 source data, measurement M43 of time course
  Th-T fluorescence, mean of three wells: 3.96
Supplementary Fig. 47 source data, measurement M44 of time course
  Th-T fluorescence, mean of three wells: 3.975
Supplementary Fig. 47 source data, measurement M45 of time course
  Th-T fluorescence, mean of three wells: 3.993
Supplementary Fig. 47 source data, measurement M46 of time course
  Th-T fluorescence, mean of three wells: 3.9875
Supplementary Fig. 47 source data, measurement M47 of time course
  Th-T fluorescence, mean of three wells: 4.0057
Supplementary Fig. 47 source data, measurement M48 of time course
  Th-T fluorescence, mean of three wells: 4.03
Supplementary Fig. 47 source data, measurement M49 of time course
  Th-T fluorescence, mean of three wells: 4.026
Supplementary Fig. 47 source data, measurement M50 of time course
  Th-T fluorescence, mean of three wells: 3.972
Supplementary Fig. 47 source data, measurement M51 of time course
  Th-T fluorescence, mean of three wells: 4.006
Supplementary Fig. 47 source data, measurement M52 of time course
  Th-T fluorescence, mean of three wells: 4
Supplementary Fig. 47 source data, measurement M53 of time course
  Th-T fluorescence, mean of three wells: 3.995
Supplementary Fig. 47 source data, measurement M54 of time course
  Th-T fluorescence, mean of three wells: 4.005
Supplementary Fig. 47 source data, measurement M55 of time course
  Th-T fluorescence, mean of three wells: 4.01
Supplementary Fig. 47 source data, measurement M56 of time course
  Th-T fluorescence, mean of three wells: 4.026
Measurement M1
  Th-T assay plate reading, mean of three wells (Supplementary Fig. 47): 0.1917
Measurement M2
  Th-T assay plate reading, mean of three wells (Supplementary Fig. 47): 0.1872
Measurement M3
  Th-T assay plate reading, mean of three wells (Supplementary Fig. 47): 0.2017
Measurement M4
  Th-T assay plate reading, mean of three wells (Supplementary Fig. 47): 0.2278
Measurement M5
  Th-T assay plate reading, mean of three wells (Supplementary Fig. 47): 0.2368
Measurement M6
  Th-T assay plate reading, mean of three wells (Supplementary Fig. 47): 0.2919
Measurement M7
  Th-T assay plate reading, mean of three wells (Supplementary Fig. 47): 0.3712
Measurement M8
  Th-T assay plate reading, mean of three wells (Supplementary Fig. 47): 0.4061
Measurement M9
  Th-T assay plate reading, mean of three wells (Supplementary Fig. 47): 0.4563
Measurement M10
  Th-T assay plate reading, mean of three wells (Supplementary Fig. 47): 0.5903
Measurement M11
  Th-T assay plate reading, mean of three wells (Supplementary Fig. 47): 0.9948
Measurement M12
  Th-T assay plate reading, mean of three wells (Supplementary Fig. 47): 1.768
Measurement M13
  Th-T assay plate reading, mean of three wells (Supplementary Fig. 47): 2.41
Measurement M14
  Th-T assay plate reading, mean of three wells (Supplementary Fig. 47): 2.789
Measurement M15
  Th-T assay plate reading, mean of three wells (Supplementary Fig. 47): 2.988
Measurement M16
  Th-T assay plate reading, mean of three wells (Supplementary Fig. 47): 3.116
Reading M17, Supplementary Fig. 47 source data
  Th-T fluorescence, mean of three wells: 3.2228
Reading M18, Supplementary Fig. 47 source data
  Th-T fluorescence, mean of three wells: 3.274
Reading M19, Supplementary Fig. 47 source data
  Th-T fluorescence, mean of three wells: 3.356
Reading M20, Supplementary Fig. 47 source data
  Th-T fluorescence, mean of three wells: 3.42
Reading M21, Supplementary Fig. 47 source data
  Th-T fluorescence, mean of three wells: 3.466
Reading M22, Supplementary Fig. 47 source data
  Th-T fluorescence, mean of three wells: 3.5211
Reading M23, Supplementary Fig. 47 source data
  Th-T fluorescence, mean of three wells: 3.558
Reading M24, Supplementary Fig. 47 source data
  Th-T fluorescence, mean of three wells: 3.581
Reading M25, Supplementary Fig. 47 source data
  Th-T fluorescence, mean of three wells: 3.61
Reading M26, Supplementary Fig. 47 source data
  Th-T fluorescence, mean of three wells: 3.64
Reading M27, Supplementary Fig. 47 source data
  Th-T fluorescence, mean of three wells: 3.697
Reading M28, Supplementary Fig. 47 source data
  Th-T fluorescence, mean of three wells: 3.7304
Reading M29, Supplementary Fig. 47 source data
  Th-T fluorescence, mean of three wells: 3.755
Reading M30, Supplementary Fig. 47 source data
  Th-T fluorescence, mean of three wells: 3.765
Reading M31, Supplementary Fig. 47 source data
  Th-T fluorescence, mean of three wells: 3.799
Reading M32, Supplementary Fig. 47 source data
  Th-T fluorescence, mean of three wells: 3.833
Reading M33, Supplementary Fig. 47 source data
  Th-T fluorescence, mean of three wells: 3.798
Reading M34, Supplementary Fig. 47 source data
  Th-T fluorescence, mean of three wells: 3.8608
Reading M35, Supplementary Fig. 47 source data
  Th-T fluorescence, mean of three wells: 3.851
Reading M36, Supplementary Fig. 47 source data
  Th-T fluorescence, mean of three wells: 3.863
Time course, reading M57
  Th-T fluorescence, mean of three wells: 4.004
Time course, reading M58
  Th-T fluorescence, mean of three wells: 4.031
Time course, reading M59
  Th-T fluorescence, mean of three wells: 4.01
Time course, reading M60
  Th-T fluorescence, mean of three wells: 3.981
Time course, reading M61
  Th-T fluorescence, mean of three wells: 4.001
Time course, reading M62
  Th-T fluorescence, mean of three wells: 4.022
Time course, reading M63
  Th-T fluorescence, mean of three wells: 4.022
Time course, reading M64
  Th-T fluorescence, mean of three wells: 3.993
Time course, reading M65
  Th-T fluorescence, mean of three wells: 3.998
Time course, reading M66
  Th-T fluorescence, mean of three wells: 4.007
Time course, reading M67
  Th-T fluorescence, mean of three wells: 3.974
time-course reading M97, Supplementary Fig. 47 source data
  Th-T fluorescence, mean of three wells: 3.915
time-course reading M98, Supplementary Fig. 47 source data
  Th-T fluorescence, mean of three wells: 3.9
time-course reading M99, Supplementary Fig. 47 source data
  Th-T fluorescence, mean of three wells: 3.901
time-course reading M100, Supplementary Fig. 47 source data
  Th-T fluorescence, mean of three wells: 3.914
time-course reading M101, Supplementary Fig. 47 source data
  Th-T fluorescence, mean of three wells: 3.9074
time-course reading M102, Supplementary Fig. 47 source data
  Th-T fluorescence, mean of three wells: 3.878
time-course reading M103, Supplementary Fig. 47 source data
  Th-T fluorescence, mean of three wells: 3.8886
time-course reading M104, Supplementary Fig. 47 source data
  Th-T fluorescence, mean of three wells: 3.914
time-course reading M105, Supplementary Fig. 47 source data
  Th-T fluorescence, mean of three wells: 3.865
time-course reading M106, Supplementary Fig. 47 source data
  Th-T fluorescence, mean of three wells: 3.9
time-course reading M107, Supplementary Fig. 47 source data
  Th-T fluorescence, mean of three wells: 3.909
time-course reading M108, Supplementary Fig. 47 source data
  Th-T fluorescence, mean of three wells: 3.872
time-course reading M109, Supplementary Fig. 47 source data
  Th-T fluorescence, mean of three wells: 3.882
time-course reading M110, Supplementary Fig. 47 source data
  Th-T fluorescence, mean of three wells: 3.8573
time-course reading M111, Supplementary Fig. 47 source data
  Th-T fluorescence, mean of three wells: 3.873
time-course reading M112, Supplementary Fig. 47 source data
  Th-T fluorescence, mean of three wells: 3.8761
time-course reading M113, Supplementary Fig. 47 source data
  Th-T fluorescence, mean of three wells: 3.855
time-course reading M114, Supplementary Fig. 47 source data
  Th-T fluorescence, mean of three wells: 3.858
time-course reading M115, Supplementary Fig. 47 source data
  Th-T fluorescence, mean of three wells: 3.833
time-course reading M116, Supplementary Fig. 47 source data
  Th-T fluorescence, mean of three wells: 3.836
